Laboratory results from patent US6162459A, “Acyclovir transdermal delivery system” (priority 1997, dated 2000).
“Also recorded” adds a separate entry of the source.

Experiments:
HSV = conditions: in vivo studies; cited from earlier work
Epstein Barr virus(EBV) = conditions: cited from earlier work
HSV 1 [1] = conditions: cited from earlier work
Cytomegalovirus(CMV) = conditions: cited from earlier work
[2] = test system: Varicella Zoster virus(VZV); conditions: cited from earlier work
HSV 1 [3] = conditions: cited from earlier work; remark: listed apart in the source
HSV 2 = conditions: cited from earlier work
[4] = used locally; cited from earlier work
[5] = in vivo; cited from earlier work
[6] = in vitro; cited from earlier work
[7] = assay type: physicochemical
Source text: Since drugs are said to pass the skin through either polar pathways or norpolar pathways, it is instructive to examine the solubility parameters and lipophilic indices of such enhancers, the latter being calculated from the defermination of their k' values in the mobile phase of varying methanol concentrations of the HPLC method used.

Nc1nc2c(ncn2COCCO)c(=O)[nH]1 [ACV, 9-[(2-Hydroxyethoxy)methyl]-guanine]
in vivo rating to treat HSV, comparison (HSV): better than FIAC(D17) and DHPG(D2); also recorded: better than bromovinyldeoxy uridine(D16) being effective against both HSV 1 and HSV 2 | activity against EBV (Epstein Barr virus(EBV)): active against EBV, but only during the productive cycle | activity against HSV 1 (HSV 1 [1]): active; also recorded: especially HSV 1 | activity against CMV (Cytomegalovirus(CMV)): active | effectiveness against CMV, comparison (Cytomegalovirus(CMV); compared with DHPG, Idoxuridine, Trifluridine, or Ara-A, in some case): less effective against CMV as compared with DHPG, Idoxuridine, Trifluridine, orAra-A | activity against VZV [2]: active | drug concentration in the skin, local vs oral (HSV 1 [3]; local application vs given orally): 2-3 times lower | effect in the treatment of HSV 1, oral vs local (HSV 1 [3]; oral administration vs local application): better with oral administration than with local application | activity against HSV 2 (HSV 2): active

O=c1[nH]c(=O)n([C@H]2C[C@H](O)[C@@H](CO)O2)cc1I [IDU]
toxicity [4]: relatively low toxicities

CC1(C)[C@@H](O[C@H]2O[C@H](C(=O)O)[C@@H](O)[C@H](O)[C@H]2O[C@@H]2O[C@H](C(=O)O)[C@@H](O)[C@H](O)[C@H]2O)CC[C@]2(C)[C@H]3C(=O)C=C4[C@@H]5C[C@@](C)(C(=O)O)CC[C@]5(C)CC[C@@]4(C)[C@]3(C)CC[C@@H]12 [glycyrrhizin]
effect against paw swelling [5]: effective against paw swelling | anti-inflammatory property [6]: anti-inflammatory property

CC1(C)CC[C@]2(C(=O)O)CC[C@]3(C)C(=CC[C@@H]4[C@@]5(C)CC[C@H](O)C(C)(C)[C@@H]5CC[C@]43C)[C@@H]2C1 [oleanolic acid]
polarity [7]: opposite polarities
